Results: patent US20250221966A1, “RXFP1 AGONISTS” (BRISTOL-MYERS SQUIBB COMPANY, priority 2021, published 2025)
pEC50: −log10 of the molar value. Structures can show the parent of a compound that is named as a salt.

target: T1, human RXFP1 (Homo sapiens, UniProt Q9HBX9); assay: RXFP1 cAMP assay (hRXFP1 HEK293 cAMP assay, HTRF); assay type: cell-based; conditions: HEK293 cells stably expressing human RXFP1, 30 min at room temperature, read-out: cAMP hRXFP1 HEK293 Assay EC50
T1 construct: expressed in transfected cells
T1 sequence (Q9HBX9 1-757): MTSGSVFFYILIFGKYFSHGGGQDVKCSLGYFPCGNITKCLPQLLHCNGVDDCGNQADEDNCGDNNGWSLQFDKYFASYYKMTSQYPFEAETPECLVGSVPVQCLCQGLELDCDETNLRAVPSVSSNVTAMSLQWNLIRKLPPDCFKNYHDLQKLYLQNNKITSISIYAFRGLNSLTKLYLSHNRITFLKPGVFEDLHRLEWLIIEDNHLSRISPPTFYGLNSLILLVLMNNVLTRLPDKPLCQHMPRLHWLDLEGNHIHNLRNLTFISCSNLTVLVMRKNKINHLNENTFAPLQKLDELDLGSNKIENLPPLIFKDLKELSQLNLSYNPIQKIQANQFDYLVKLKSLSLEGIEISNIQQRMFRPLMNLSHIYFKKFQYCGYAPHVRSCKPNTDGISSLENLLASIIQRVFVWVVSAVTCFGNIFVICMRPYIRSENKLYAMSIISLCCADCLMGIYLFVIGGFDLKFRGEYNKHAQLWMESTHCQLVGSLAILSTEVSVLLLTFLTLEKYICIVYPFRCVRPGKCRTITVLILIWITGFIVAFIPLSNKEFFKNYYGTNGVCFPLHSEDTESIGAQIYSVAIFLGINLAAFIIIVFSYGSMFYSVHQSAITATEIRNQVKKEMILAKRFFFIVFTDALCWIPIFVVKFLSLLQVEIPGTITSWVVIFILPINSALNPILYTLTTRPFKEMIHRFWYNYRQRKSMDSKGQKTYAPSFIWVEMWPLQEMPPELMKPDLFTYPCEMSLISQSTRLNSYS
Summary of the method: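 In a stable human RXFP1 HEK293 line, compounds acted for 30 min at RT in buffer with 0.5 mM IBMX. HTRF then quantified cellular cAMP.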

Compound	pEC50
COc1ccc(C2=NO[C@H]3CC(CO)C[C@@H]23)cc1C(=O)N[C@H]1[C@@H](C(=O)Nc2ccc(F)c(C(F)(F)F)c2)[C@H]2CC[C@@H]1/C2=C\CCC(F)(F)F (some centres unmarked) [compound 825]	8.54
COc1ccc(-c2ccc(N3CCOCC3)c(C(=O)O)c2)cc1C(=O)N[C@H]1[C@@H](C(=O)Nc2ccc(F)c(C(F)(F)F)c2)[C@H]2CC[C@@H]1/C2=C\C1CC1 [Example 249, 3′-(((1R,2R,3S,4R,Z)-7-(cyclopropylmethylene)-3-((4-fluoro-3-(trifluoromethyl)phenyl)carbamoyl)bicyclo[2.2.1]heptan-2-yl)carbamoyl)-4′-methoxy-4-morpholino-[1,1′-biphenyl]-3-carboxylic acid, TFA]	8.30
CC(C)=C1C2CCC1[C@H](C(=O)Nc1ccc(F)c(C(F)(F)F)c1)[C@@H]2NC(=O)c1cc(-c2cc(C(=O)O)ccc2F)ccc1N(C)C (some centres unmarked) [Example 107]	6.74
COc1ccc(C2=NOC3COCC23)cc1C(=O)N[C@H]1[C@@H](C(=O)NC(C2CC2)C2CC2)[C@H]2CC[C@@H]1/C2=C\C1CC1 (some centres unmarked) [compound 521]	7.71
COc1ccc(-c2cccc(C(=O)O)c2OC)cc1C(=O)N[C@H]1[C@@H](C(=O)Nc2ccc(F)c(C(F)(F)F)c2)[C@H]2CC[C@@H]1C2=C(C)C [compound 101]	6.24
COc1ccc(C2=NOC3COCC23)cc1C(=O)N[C@H]1[C@@H](C(=O)NC(C)(C)C(C)(C)C)[C@H]2CC[C@@H]1/C2=C\C1CC1 (some centres unmarked) [compound 508]	7.89
COc1ccc(-c2cc(C(OC(=O)NC3COC3)C(F)(F)F)ccc2F)cc1C(=O)N[C@@H]1C2CCC(/C2=C/C2CC2)[C@@H]1C(=O)Nc1ccc(F)c(C(F)(F)F)c1 (some centres unmarked) [compound 218]	8.70
COc1ccc(C2=NOC3CC(CO)CC23)cc1C(=O)N[C@H]1[C@@H](C(=O)Nc2ccc(F)c(C(F)(F)F)c2)[C@H]2CC[C@@H]1/C2=C\C1CCCC1 (some centres unmarked) [compound 457]	8.68
COc1ccc(N2CCCC(C(=O)O)C2)cc1C(=O)N[C@@H]1C2CCC(C2=C(C)C)[C@@H]1C(=O)Nc1ccc(F)c(C(F)(F)F)c1 (some centres unmarked) [compound 142]	5.54
O=C(N[C@H]1[C@@H](C(=O)Nc2ccc(F)c(C(F)(F)F)c2)[C@H]2CC[C@@H]1/C2=C\C1CC1)c1cccc(C2=NOC3COCC23)c1 (single isomer, unassigned) [compound 719]	5.60
COc1ccc(C2=NOC3CC(CO)CC23)cc1C(=O)N[C@H]1[C@@H](C(=O)N[C@H](C)C2(C)CC2)[C@H]2CC[C@@H]1/C2=C\c1ccncn1 (some centres unmarked) [compound 807]	8.68
COc1ccc(C2=NOC3CC(CO)CC23)cc1C(=O)N[C@H]1[C@@H](C(=O)Nc2ccc(F)c(C(F)(F)F)c2)[C@H]2CC[C@@H]1/C2=C\C1CC1 (stereo partly drawn) [Example 429, (1R,2S,3R,4R,Z)-7-(cyclopropylmethylene)-N-(4-fluoro-3-(trifluoromethyl)phenyl)-3-(5-(5-(hydroxymethyl)-3a,5,6,6a-tetrahydro-4H-cyclopenta[d]isoxazol-3-yl)-2-methoxybenzamido)bicyclo[2.2.1]heptane-2-carboxamide]	8.70
COc1ccc(-c2cc(C(=O)O)ccc2F)cc1C(=O)N[C@@H]1C2CCC(/C2=C/C(=O)N2CC(F)(F)C2)[C@@H]1C(=O)Nc1ccc(F)c(C(F)(F)F)c1 (some centres unmarked) [compound 324]	5.65
COc1ccc(C2=NOC3CC(CO)CC23)cc1C(=O)N[C@H]1[C@@H](C(=O)Nc2ccc(F)c(C(F)(F)F)c2)[C@H]2CC[C@@H]1/C2=C\c1csc(C)n1 (some centres unmarked) [compound 805]	8.39
COc1ccc(-c2cc(C(=O)O)ccc2F)cc1C(=O)N[C@@H]1C2CCC(/C2=C/C2CC2)[C@@H]1C(=O)NC1CCC1 (some centres unmarked) [compound 202]	6.74
COc1ccc(C2=NOC3COCC23)cc1C(=O)N[C@H]1[C@@H](C(=O)Nc2ccc(F)c(C(F)(F)F)c2)[C@H]2CC[C@@H]1/C2=C\c1cscn1 (some centres unmarked) [compound 737]	8.49
COc1c(F)cc(C2=NOC3CC(CO)CC23)cc1C(=O)N[C@H]1[C@@H](C(=O)N[C@H](C)C2(C)CC2)[C@H]2CC[C@@H]1/C2=C\C1CC1 (some centres unmarked) [compound 757]	9.05
